Results on 1 molecule are retold here after patent US20140271604A1, “HDAC Inhibitor Polymorphic Forms and Methods of Use” (priority 2013, published 2014).

Series [1] in a line: Solubility assessment experiments in organic solvents. To be noted: Table 1.
Procedure: Solubility assessment experiments were carried out in a variety of solvents followed by storage in a climate chamber for 48 to 72 hours at 40 degrees centigrade and 75% relative humidity.
The next series concerns tumors. To be noted: cited from earlier work.
Series [2] can be described thus: Concentration of saturated AR42 stock solutions (anti-solvent addition crystallization). Particulars: equilibrated 24 hours, filtered. The class given is physicochemical. Here is the method:
Tables 3-5 illustrate anti-solvent addition crystallization experiments conducted on the indicated Form. In this example, saturated solutions of AR42 were prepared in the following solvents: Acetone, 2-Butanone, Methanol, Ethanol, Isopropanol, Acetonitrile, 1,4-Dioxane and Dimethylformamide. Excess AR42 was added to the solvent and the suspension equilibrated for 24 hours. After equilibration, the suspension was filtered through a […] filter to remove particulate solids.
An equal volume of anti-solvent selected from the following list was added to 300 μL of the saturated solutions of AR42: Toluene, Nitrobenzene, Nitromethane, Water, n-Heptane, Cyclohexane. An additional 300 μL of anti-solvent was added if no precipitation occurred. Aliquots of 300 μL of anti-solvent were added until precipitation occurred or the total volume was 1,200 μL of anti-solvent. The solution was allowed to incubate for 60 minutes at room temperature in between the addition of anti-solvent. If no precipitation occurred after the last addition of anti-solvents, samples were incubated for 24 hours at 4° C. Samples in which precipitation occurred were centrifuged for 10 minutes at 3000 rpm to separate the liquid from the solid. The liquid phase was removed and the solid phase dried and analyzed by XRPD. The solutions in which no precipitation occurred were placed under deep vacuum and dried to completion. Solids were collected and analysed by XRPD.

Each structure is given as a SMILES string.

`CC(C)[C@H](C(=O)Nc1ccc(C(=O)NO)cc1)c1ccccc1` [AR-42, (S)—N-hydroxy-4-(3-methyl-2-phenylbutanamido)benzamide]: the “Concentration” value is below 2000 µg/mL in series [1] (solvent Chloroform); 1000 µg/mL in series [1] (solvent Nitromethane); below 1000 µg/mL in series [1] (solvent Toluene); 7000 µg/mL in series [1] (solvent Trifluoroethanol, 2,2,2-). Moreover, in the series on tumors (breast, prostate, ovarian, blood cell, liver, and brain tumors), the “Inhibitory effect in tumors” value is “demonstrated inhibitory effect”. Also, the “Potency and activity compared to vorinostat (SAHA)” value in the series on tumors (solid tumors and hematological malignancies) is “greater potency and activity”. Also, the “Concentration (mg/mL) of saturated stock solution” value in series [2] (stock solvent Acetone) is reported as 175.9 mg/mL; in series [2] (stock solvent Acetonitrile) it was 13.5 mg/mL; in series [2] (stock solvent Butanone 2-), 130.7 mg/mL; in series [2] (stock solvent Dimethylformamide N,N-) it was 335 mg/mL; in series [2] (stock solvent Dioxane, 1,4-) it was 46.8 mg/mL; in series [2] (stock solvent Ethanol), 134.1 mg/mL. For the same molecule, the “Concentration (mg/mL) of saturated stock solution” value in series [2] (stock solvent Propanol 2-) was determined as 227.8 mg/mL; in series [2] (stock solvent methanol), 390.5 mg/mL.
